Converted amounts (≈) assume the structure as drawn.
Columns and labels:
[1] = tested on: Staphylococcus aureus; experiment: Antibacterial activity against Staphylococcus aureus SMH36945 by broth dilution method
[2] = tested on: Staphylococcus aureus; experiment: Antibacterial activity against Staphylococcus aureus SMH37099 by broth dilution method
[3] = tested on: Staphylococcus aureus; experiment: Antibacterial activity against Staphylococcus aureus SMH37312 by broth dilution method
[4] = tested on: Staphylococcus aureus; experiment: Antibacterial activity against Staphylococcus aureus SMH36633 by broth dilution method
[5] = tested on: Staphylococcus aureus; experiment: Antibacterial activity against Staphylococcus aureus SMH38004 by broth dilution method; assay type: functional
[6] = tested on: Staphylococcus aureus; experiment: Antibacterial activity against Staphylococcus aureus SMH37276 by broth dilution method; assay type: functional
[7] = tested on: Staphylococcus aureus; experiment: Antibacterial activity against Staphylococcus aureus SMH37390 by broth dilution method; assay type: functional
[8] = tested on: Staphylococcus aureus; experiment: Antibacterial activity against Staphylococcus aureus SMH36742 by broth dilution method

## COc1c(N2C[C@@H]3CCCN[C@@H]3C2)c(F)cc2c(=O)c(C(=O)O)cn(C3CC3)c12 [MOXIFLOXACIN]
[1]
  MIC: 2 µg/mL (≈ 4.98 µM)
[2]
  MIC: 0.03 µg/mL (≈ 0.0747 µM)
[3]
  MIC: 0.03 µg/mL (≈ 0.0747 µM)
[4]
  MIC: 0.03 µg/mL (≈ 0.0747 µM)
[5]
  MIC: 0.09 µg/mL (≈ 0.224 µM)
[6]
  MIC: 0.7 µg/mL (≈ 1.74 µM)
[7]
  MIC: 0.04 µg/mL (≈ 0.0996 µM)
[8]
  MIC: 1 µg/mL (≈ 2.49 µM)

Source: ChEMBL document CHEMBL1649300, “Bacterial strain-to-strain variation in pharmacodynamic index magnitude, a hitherto unconsidered factor in establishing antibiotic clinical breakpoints” (2009)
